According to patent US20230123334A1, “AMINO LIPID COMPOUND, PREPARATION METHOD THEREFOR, AND APPLICATION THEREOF” (SHENZHEN SHENXIN BIOTECHNOLOGY CO., LTD., priority 2020, published 2023):

Key:
Format in all cases: cell-based
Hela cells [1] = assay: Transfection of Hela cell line, DNA vectors; conditions: 75 ng plasmid DNA, GFP cells / total cells
Summary of the method: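 Amino lipid/DOPE liposomes in sodium acetate pH 5.6 were complexed with 75 ng psin-EGFP-IRES-Puro plasmid for 30 min at room temperature, then mixed with 3-5×10^4 Hela cells in DMEM/10% FBS at 37° C. Hoechst stain after 20-24 h, imaging after a further 20-24 h. Efficiency = GFP-positive cells / total nuclei.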

Hela cells [2] = assay: Transfection of Hela cell line, mRNA vectors; conditions: 50 ng EGFP mRNA per well
Summary of the method: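 HeLa cells in DMEM with 10% FBS transfected with 50 ng EGFP mRNA per well. Readout is percentage of GFP-positive cells among total cells counted by Hoechst nuclear stain; Lipofectamine2000 served as positive control.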

MCF7 cells [3] = assay: Transfection of MCF7 cell line, DNA vectors; design: concentration or dose not given beside the values; conditions: plasmid DNA, GFP cells / total cells
Summary of the method: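 MCF7 cells in DMEM with fetal bovine serum were transfected in 96-well format. Read-out was the percentage of GFP-fluorescent cells among total cells counted by Hoechst nuclear stain. Lipofectamine2000 served as positive control.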

MCF7 cells [4] = assay: Transfection of MCF7 cell line, mRNA vectors; conditions: 50 ng EGFP mRNA per well
Summary of the method: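 MCF7 cells in DMEM with fetal bovine serum were transfected with 50 ng EGFP mRNA per well. Read-out was the percentage of GFP-positive cells among total Hoechst-stained nuclei, with Lipofectamine2000 as positive control.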

[5] = tested on: embryonic stem cells (hESC2); assay: Screening as DNA vectors in embryonic stem cells, flow cytometry; conditions: 75 ng plasmid DNA, 48 hours after transfection, flow cytometer
From the text: (§1) Cell line: embryonic stem cells (hESC2, cultured according to reported methods: Stem Cells, 2005, 23, 544-549)
(§2) Medium: mTeSR1 (STEMCELL)
(§3) Mode of screening: cell transfection on 96-well plates
(§4) Detection (readout): percentage of the number of GFP fluorescent cells relative to the total number of cells. Lipofectamine Stem was used as the positive control.
Method: an 8-channel pipette was used for sample addition. The contents shown were for a single well of a 96-well flat plate.
1. Stem cells were cultured to 3-5×10^4 cells per well in a 96-well plate treated with matrigel.
2. The compound (0.01 mmol) prepared in Example 1 was dissolved in 1 mL of anhydrous ethanol. After ultrasonically dissolved, 10 μL of the resultant amino lipid solution in ethanol was taken and mixed with 5 μL of DOPE solution in ethanol ([…]). The obtained mixture was then added with 35 μL of 0.2 M sodium acetate buffer (pH 5.6), and vortexed at a constant rotating speed for 30 s. Then, 4 μL was taken from the obtained product and added to 46 μL of 0.02 M sodium acetate buffer (pH 5.6), and vortexed at a constant rotating speed for 30 s to form a liposome solution. 5 μL of this liposome solution was mixed with 75 ng of plasmid DNA (pSin-EGFP-IRES-Puro) dissolved in 5 μL of 0.02 M sodium acetate buffer, and allowed to stay at room temperature for 30 min to form a lipid/DNA transfection complex.
3. 10 μL of the lipid/DNA transfection complex was incubated at room temperature for 30 min, followed by addition of 90 μL mTeSR1 medium was added and mixing with a pipette. 100 μL of the mixture was added to separate wells of a 96-well culture plate and placed in an incubator containing 5% CO2 at 37° C.
4. 48 hours after transfection, the cells were digested with 0.05% Trypsin-EDTA. The cells were resuspended in a PBS buffer and filtered. The cell suspension was placed in a flow cytometer and the number of GFP-expressing cells in no less than 2000 cells was measured so as to obtain the absolute efficiency of cell transfection. The relative efficiency of cell transfection was obtained by comparing the cell transfection efficiency with the positive control Lipofectamine Stem.

[6] = tested on: embryonic stem cells (hESC2); assay: Screening as mRNA vectors in embryonic stem cells; conditions: 50 ng EGFP mRNA per well
Experimental: as §1, §2
Mode of screening: cell transfection on 96-well plate
as §4
Method: the experimental method was basically the same with Example 10, and the mass of EGFP mRNA for transfection was 50 ng per well.

cardiomyocytes [7] = assay: Screening as DNA vectors in cardiomyocytes; design: concentration or dose not given beside the values; conditions: method as Example 4
Experimental: Cell line: cardiomyocytes (obtained from induced differentiation of hESC according to reported methods: J. Mol. Cell. Cardiol. 2011, 51, 288-298)
(§5) Medium: DMEM supplemented with 10% fetal bovine serum (Invitrogen)
as §3
(§6) Detection (readout): percentage of the number of GFP fluorescent cells relative to the total number of cells (the total number of cells was determined using nucleus dye Hoechst). Lipofectamine Stem (Invitrogen) was used as the positive control, according to the manufacturer's instructions.
Method: the experimental method was basically the same with Example 4.

cardiomyocytes [8] = assay: Screening as mRNA vectors in cardiomyocytes; conditions: 50 ng EGFP mRNA per well
Experimental: Cell line: cardiomyocytes (obtained from induced differentiation of hESC according to reported methods: J Mol. Cell. Cardiol. 2011, 51, 288-298)
as §5, §3, §6
Method: the experimental method was basically the same with Example 4, and the mass of EGFP mRNA for transfection was 50 ng per well.

Row | SMILES | Absolute DNA transfection efficiency in Hela cells (Hela cells [1]) | Absolute mRNA transfection efficiency in Hela cells (Hela cells [2]) | Absolute DNA transfection efficiency in MCF7 cells (MCF7 cells [3]) | Absolute mRNA transfection efficiency in MCF7 cells (MCF7 cells [4]) | Absolute DNA transfection efficiency in embryonic stem cells [5] | Absolute mRNA transfection efficiency in embryonic stem cells [6] | Absolute DNA transfection efficiency in cardiomyocytes (cardiomyocytes [7]) | Absolute mRNA transfection efficiency in cardiomyocytes (cardiomyocytes [8])
1 | CCCCCCCCCCCNc1nc(NCCCN(C)C)nc(SCCCCCCCC)n1 [Compound S8N11D6] | 50.1% | 50.2% | 18.0% | 6.7% | 0.2% | 1.9% | 1.4% | 5.3%
2 | CCCCCCCCCCCNc1nc(NCCCN2CCOCC2)nc(SCCCCCCCC)n1 [Compound S8N11D8] | 6.8% | 6.8% | 4.4% | 0.1% | 0.7% | 1.0% | 2.1% | 1.9%
3 | CCCCCCCCCCCNc1nc(NCCCN2CCN(C)CC2)nc(SCCCCCCCC)n1 [Compound S8N11D9] | 31.9% | 31.9% | 45.4% | 6.6% | 0.5% | 1.0% | 0.6% | 31.6%
4 | CCCCCCCCCCCNc1nc(NCC2CCN(C)CC2)nc(SCCCCCCCC)n1 [Compound S8N11D10] | 23.4% | 23.4% | 45.3% | 4.4% | 0.7% | 0.7% | 6.6% | 16.8%
5 | CCCCCCCCCCCSc1nc(NCCN2CCCC2)nc(SCCCCCCCC)n1 [Compound S8S11D3] | 3.3% | 3.3% | 2.7% | 20.4% | 0.7% | 21.4% | 1.9% | 21.0%
6 | CCCCCCCCCCCSc1nc(NCCN2CCN(C)CC2)nc(SCCCCCCCC)n1 [Compound S8S11D5] | 5.9% | 5.9% | 48.3% | 30.6% | 2.4% | 21.1% | 0.5% | 2.7%
7 | CCCCCCCCCCCSc1nc(NCCCN(C)C)nc(SCCCCCCCC)n1 [Compound S8S11D6] | 3.9% | 3.9% | 56.8% | 46.3% | 1.6% | 10.3% | 1.0% | 18.4%
8 | CCCCCCCCCCCSc1nc(NCCCN2CCOCC2)nc(SCCCCCCCC)n1 [Compound S8S11D8] | 7.6% | 7.6% | 12.3% | 7.0% | 1.0% | 1.6% | 2.2% | 0.7%
9 | CCCCCCCCCCCSc1nc(NCCCN2CCN(C)CC2)nc(SCCCCCCCC)n1 [Compound S8S11D9] | 6.8% | 6.8% | 59.8% | 34.9% | 1.0% | 18.1% | 0.8% | 25.5%
10 | CCCCCCCCCCCSc1nc(NCC2CCN(C)CC2)nc(SCCCCCCCC)n1 [Compound S8S11D10] | 21.8% | 21.8% | 37.2% | 40.4% | 0.7% | 37.4% | 1.4% | 20.8%
11 | CCCCCCCCCCCCSc1nc(NCCN2CCCC2)nc(SCCCCCCCC)n1 [Compound S8S12D3] | 5.5% | 5.5% | 1.9% | 6.7% | 1.5% | 17.9% | 0.3% | 36.7%
